A melting point compilation (Tetko et al.; mined from patent text by program, amines drawn as free bases though some values may be those of a salt)

Row | SMILES | melting point [°C]
1 | Cc1c(C)c2c(c(C)c1NS(=O)(=O)CCCC(F)(F)F)C(c1ccc(C(C)C)cc1)CO2 (stereo unspecified) | 149 to 150
2 | CC(=O)N(c1ccc(F)c(Cl)c1)c1ncnc2cc(OCCCN3CCOCC3)c([N+](=O)[O-])cc12 | 154
3 | COC(=O)Cc1cn(-c2ccccc2)nc1OCc1ccc(OCc2nc(-c3ccccc3)oc2C)nc1 | 96 to 97
4 | CCCCCS(=O)(=O)NC(=O)/C=C/c1ccc(OCCCOC)cc1Oc1ncc(C(F)(F)F)cc1Cl | 116 to 118
5 | CC(C)(N)COc1ccc(O)c(C(N)=O)c1 | 115 to 117
6 | COC(=O)C(C)NC(=O)NS(=O)(=O)C=Cc1ccccc1 (stereo unspecified) | 138 to 140
7 | CC(=O)CN1C(=O)COc2ccccc21 | 74 to 76
8 | CCCCCC(=O)C=[PH2]c1ccccc1 | 73 to 74
9 | COc1ccc(-c2nn(Cc3cccnc3)c(=O)cc2-c2ccncc2)cc1 | 162
10 | O=c1[nH][nH]c(=O)c2nc3ccccc3cc12 | 345 to 349
11 | OC(c1cc2ccccc2c2ccccc12)c1cc2ccccc2c2ccccc12 | 236 to 238
12 | O=C(O)C(=O)Nc1nccs1 | 174 to 177
13 | CN(CCc1ccc(O)c(O)c1)C(=O)/C=C/c1cccnc1 | 155 to 158
14 | CCN(CC)CCCC1CCN(CCNC(=O)N2c3ccccc3NC(=O)c3csc(C)c32)CC1 | 131 to 133
15 | CCCC(c1ccc(C(=O)O)cc1)[Si]1(C)O[Si](C)(C)O[Si](C)(C)O[Si](C)(C)O1 (stereo unspecified) | 72 to 78
16 | Cc1nc(-c2c(Cl)cc(C(F)(F)F)cc2Cl)[nH]c1S(=O)(=O)Cl | 227 to 230
17 | C=CC(=O)N(CCCCCC)C[C@H](O)[C@@H](O)[C@H](O)[C@H](O)CO | 86 to 88
18 | O=C1CC(CO)N1c1ccccc1 (stereo unspecified) | 100 to 102
19 | CCCCCn1c(=O)c(-c2ccccc2)c2n(c1=O)CCCS2 | 100 to 101
20 | O=C1OC(=O)c2c3cc(Cl)ccc3cc3cccc1c23 | 325 to 327
21 | CCCOc1ccc(-c2scc(-c3ccccc3Cl)c2CC(=O)NC(=N)NCCCO)cc1 | 49 to 50
22 | COc1ccc2oc(-c3ccc(O)cc3C)cc2c1 | 149 to 154
23 | NCCN1C(=O)CN(c2ccc(Cl)cc2)C1=O | 142 to 145
24 | COc1ccc(-c2ccc(N3CCCN(c4ccc(-c5ccc(OC)cc5OC)cn4)CC3)nc2)c(OC)c1 | 161 to 163
25 | COc1cc(C(=O)O)ccc1Cn1cc(/C=C/C(=O)N2CCCC2)c2ccc(/C=C/C(=O)N3CCCC3)cc21 | 286 to 288
26 | Cc1ccccc1NC(=O)CN1CCN(c2ncccc2C#N)CC1 | 123 to 125

Row | SMILES | melting point [°C]
27 | CSc1nc(N)ncc1S(=O)(=O)NC(=O)NC(C)C | 190 to 192
28 | O=C(c1ccc(Oc2ccccc2)cc1)c1cccc(C(=O)c2ccc(Oc3ccccc3)cc2)c1 | 117 to 119
29 | CC(C)(C)OC(=O)N[C@H](Cc1ccc(C(F)(F)F)cc1)[C@@H](O)c1ccncc1 (racemic) | 198 to 200
30 | CN(C)Cc1c(-c2ccc3sc(=O)n(C)c3c2)nc2ccccn12 | 137 to 140
31 | CC12CCC(C1)C1(C)Oc3ccccc3C21C (stereo unspecified) | 68
32 | CCCCOC(=O)Cc1cc(O)c(C)cc1O | 113
33 | COC(=O)Cc1ccc(OC)c([N+](=O)[O-])c1 | 101 to 102
34 | O=C(Nc1cccc2c(CO)ccnc12)c1c(Cl)cccc1Cl | 235 to 239
35 | O=C(Nc1ccc(-n2nc(C(F)(F)F)cc2OC(F)F)cc1)c1ccccc1Cl | 122 to 123
36 | CCCCOc1ccc(-c2nc(-c3ccc(Sc4ccccc4)cc3)nc(-c3ccc(OCCCC)cc3O)n2)c(O)c1 | > 250
37 | CN1CC=C(c2c[nH]c3ccc(OS(=O)(=O)c4ccccc4)cc23)CC1 | 186 to 190
38 | OCCCOc1ccc(Cl)cc1Cl | 53 to 55
39 | CC(C)(C)N(Cc1ccccc1)CC(O)c1ccc(OCc2ccccc2)c(N)c1 (stereo unspecified) | 68 to 69
40 | O=C1/C(=C/C=C/c2ccccc2)CCc2cc(OCCn3ccnc3)ccc21 | 198 to 200
41 | CCOC(=O)c1cn(C)c2cnc3cc(F)c(N4CCNC(c5ccc(C)c(C)c5)C4)cc3c2c1=O (stereo unspecified) | 290
42 | COc1cccc(CCc2c(CCNC(=O)CCCCC(=O)O)ccc(OC)c2OC)c1 | 119 to 121
43 | CC(C)n1nc(-c2sc(NC(=O)c3ccccc3)nc2-c2ccc(F)cc2)ccc1=O | 228 to 230
44 | Cc1c2n(c3ccccc13)C(=O)N(C(C)c1ncn(C(c3ccccc3)(c3ccccc3)c3ccccc3)c1C)CC2 (stereo unspecified) | 71 to 76
45 | CCc1c(C(=O)OC(C)C)ncc2[nH]c3ccc4nc(C)cnc4c3c12 | 236 to 238
46 | CCCn1cnc2nc(-c3ccc(Cl)cc3)nn2c1=S | 214 to 216
47 | Cc1nc2cccc(N)c2nc1C | 162 to 163
48 | O=c1n(-c2ccc(Cl)cc2Cl)nc2n1CCCC2 | 100 to 104
49 | N=C(N)c1ccc(N2CCN(c3ccc(OCC(=O)O)cc3)CC2)cc1 | > 340
50 | CCOC(=O)c1c(N2CCN(C(=O)c3cccs3)CC2)c2cscc2n(Cc2ccc(F)cc2)c1=O | 227
51 | Cc1ccc(C2CCCCC2)n1CC[C@H]1C[C@H](O)CC(=O)O1 (relative stereo) | 129 to 130
52 | CC(C)(C)OC(=O)N1CCS(=O)(=O)C1 | 106 to 107

Row | SMILES | melting point [°C]
53 | C=C1N(c2ccc(Cl)cc2)C(=O)OC12CCN(CCC=C(c1ccc(F)cc1)c1ccc(F)cc1)CC2 | 186 to 188
54 | NS(=O)(=O)c1ccc(-c2cc(C(=O)CCCO)nn2C2CCCCC2)cc1 | 152 to 154
55 | Cc1cc2c(s1)SCCNC2=O | 155 to 156
56 | O=C1NC(=O)C(=Cc2ccc(SCCc3ccc(Cl)cc3)cc2)S1 | 215 to 225
57 | Cc1ccc2c(Br)c(Br)sc2c1 | 67.5 to 68.5
58 | COC(=O)Cc1ccc(C(C)=O)cc1 | 44
59 | COc1ccc(NC2(C#N)CCCCC2)cn1 | 121 to 123
60 | O=C(CC(=S)S)c1ccc(Oc2ccccc2)cc1 | 78
61 | CCCC(C=NNC(=O)OC)c1ccc(Cl)cc1Cl (stereo unspecified) | 165 to 166
62 | Fc1ccc(-c2ccn(CC3CCCNC3)c2-c2ccncc2)cc1 (stereo unspecified) | 134 to 135
63 | Cc1cc(C#N)cc(C(=O)Nc2ccn(C)n2)n1 | 201
64 | COc1cc(-c2cncn2-c2ccc(S(C)(=O)=O)cc2)ccc1C | 174 to 175
65 | Cc1nc2c(N)nc3c(c2n1CC(C)(C)O)CCCC3 | 290 to 292
66 | CCOc1cc(COc2cc(CCC(=O)O)n(-c3ccccc3)n2)cc(COc2ccc(Cl)cc2Cl)c1 | 152
67 | CC(C)(C)OC(=O)Nc1cc(OCC#N)c(-c2ccc(F)cc2)cc1[N+](=O)[O-] | 148
68 | NC(=O)c1c(F)ccc(OCc2ccc3ccccc3n2)c1F | 216 to 218
69 | CCOC(=O)c1ccc(N)cc1-c1ccc(OC)c(OC)c1 | 127
70 | COc1ccc(NC(=O)NC(=O)Oc2ccccc2)cc1OC | 140 to 142
71 | Cc1cccc(Nc2nc(N)ncc2S(N)(=O)=O)c1 | 213 to 215
72 | CCOC(=O)C(=O)N(c1ccccc1)c1cc(OC)c([N+](=O)[O-])cc1OC | 146 to 147
73 | Cc1cc(N=Nc2ccccn2)ccc1-c1ccc(-c2ccc(N=Nc3ccccn3)cc2C)s1 | 152 to 153
74 | CCOC(=O)c1ccc(-c2cc3c(NCc4cccc(Cl)c4)ncnc3[nH]2)cc1 | 305 to 306
75 | COC1=C(CCO)C(=O)C(OC)=C(CCCCCC2=C(OC)C(=O)C(CCO)=C(OC)C2=O)C1=O | 97 to 99
76 | CN(C)C1(c2ccccc2)CCC2(CC1)NCCc1c2[nH]c2ccccc12 (stereo unspecified) | 214 to 218
77 | Cc1ccc(-c2ccc3c(c2)C=C(C=O)CCO3)cc1 | 132 to 133
78 | CN(C)CCCNS(=O)(=O)c1cccc([N+](=O)[O-])c1 | 84 to 87

Row | SMILES | melting point [°C]
79 | N#Cc1ccc(N2CC(C(=O)O)OC2=O)cc1 (stereo unspecified) | 204
80 | O=C(O)CCn1ccc2cc(OCc3ccc4ccccc4n3)ccc21 | 157 to 160
81 | CNC1(c2ccccc2)CCC(=O)CC1 | 32 to 38
82 | O=C(NCCc1ccccc1)c1ccccc1I | 125 to 126
83 | CC(C)(C)CC(C)(C)c1cc(-n2nc3ccc(-c4ccc(-c5ccccc5)cc4)cc3n2)c(O)c(C(C)(C)c2ccccc2)c1 | 181 to 183
84 | CNc1c2c(nc3ccc([N+](=O)[O-])cc13)CCCC2=O | 208
85 | CCc1c(CC#N)ccc(OCc2ccccc2)c1OCc1ccccc1 | 44 to 47.5
86 | CCCOc1ccccc1-c1ncc(C(=O)OCC)c(=O)[nH]1 | 106 to 107
87 | COC(=O)c1ccc2c(oc3ccccc32)c1C(=O)OC | 123
88 | COC(=O)C1=Cc2cc(O)ccc2S(=O)(=O)CC1 | 176 to 178
89 | CSc1cc2c(cc1F)C(=O)c1cc3ccccc3cc1C2=O | 230 to 235
90 | CCCC(CCC)(CC(=O)Nc1cccc(OCc2ccc3ccc(F)cc3n2)c1)C(=O)O | 155 to 156
91 | CC(=O)c1ccc(NC(=O)C(N)c2ccc3c(c2)C(C)(C)CCC3(C)C)cc1 (stereo unspecified) | 138 to 139
92 | CNC(=O)[C@H]1CN(c2ccc3c(c2)sc(=O)n3C)C(=O)O1 | 264 to 267
93 | Cc1ncnn1-c1cc(F)ccc1C#N | 120 to 121
94 | COc1nc(C)c(C)nc1NC(=O)N1CCN(c2cccc(Br)c2)CC1 | 158 to 160
95 | O=C(Nc1ccc(C(F)(F)F)cc1)Nc1nc(Cl)cc(Cl)n1 | 99 to 101
96 | Nc1ccc2c(c1)COC2=O | 177 to 189
97 | O=C(O)c1ccc(C(=O)NC/C=C/c2ccccc2)cc1 | 176 to 178
98 | CC(C)(C)OC(=O)CCc1ccnc(-c2nc(=O)c3ccc(F)cc3s2)c1 | 138
99 | NC(=O)c1ccc(Cl)c2c1CC([N+](=O)[O-])CO2 (stereo unspecified) | 193 to 194
100 | OC(c1cnc2c(cnn2-c2ccccc2)c1)(c1c[nH]c2ncccc12)C(F)(F)F (stereo unspecified) | 137 to 141
101 | CCn1cc(C(=O)NCc2ccc(Cl)cc2)c(=O)c2cc(C#CCOC(=O)CN3CCOCC3)sc21 | 168 to 170
